Key:
[1] = target: T1, purified class A, C and D enzymes (β-lactamases) (Pseudomonas aeruginosa, UniProt P24735); assay: biochemical; type: biochemical
T1 construct: rows headed: Ki (Pa-AmpC, NCF), uM; other: purified Pa-AmpC; nitrocefin (NCF) as reporter substrate

[2] = target: purified class A, C and D enzymes (β-lactamases) (Klebsiella pneumoniae, UniProt Q9F663); assay: biochemical; type: biochemical; details: purified KPC-2; nitrocefin (NCF) as reporter substrate
[3] = target: purified class A, C and D enzymes (β-lactamases) (Enterobacter cloacae, UniProt P05364); assay: biochemical; type: biochemical
Sequence of purified class A, C and D enzymes (β-lactamases) (Enterobacter cloacae, UniProt P05364) (P05364 21-381): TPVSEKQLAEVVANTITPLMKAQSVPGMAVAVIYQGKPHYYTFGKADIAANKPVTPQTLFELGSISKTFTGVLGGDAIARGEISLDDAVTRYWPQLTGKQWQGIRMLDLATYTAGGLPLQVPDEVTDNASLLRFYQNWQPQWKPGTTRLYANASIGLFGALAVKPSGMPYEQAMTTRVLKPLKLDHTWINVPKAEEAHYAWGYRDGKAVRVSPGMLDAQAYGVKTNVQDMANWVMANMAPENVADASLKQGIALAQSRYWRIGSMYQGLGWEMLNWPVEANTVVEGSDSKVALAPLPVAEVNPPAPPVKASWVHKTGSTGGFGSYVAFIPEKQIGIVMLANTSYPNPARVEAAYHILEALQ

[4] = target: purified class A, C and D enzymes (β-lactamases) (Klebsiella pneumoniae, UniProt Q6XEC0); assay: biochemical; type: biochemical; details: purified OXA-48; nitrocefin (NCF) as reporter substrate
[5] = target: purified class A, C and D enzymes (β-lactamases) (Escherichia coli, UniProt Q9L5C7); assay: biochemical; type: biochemical; details: purified CTX-M-14; nitrocefin (NCF) as reporter substrate
Sequence of purified class A, C and D enzymes (β-lactamases) (Escherichia coli, UniProt Q9L5C7) (Q9L5C7 entry or part of it): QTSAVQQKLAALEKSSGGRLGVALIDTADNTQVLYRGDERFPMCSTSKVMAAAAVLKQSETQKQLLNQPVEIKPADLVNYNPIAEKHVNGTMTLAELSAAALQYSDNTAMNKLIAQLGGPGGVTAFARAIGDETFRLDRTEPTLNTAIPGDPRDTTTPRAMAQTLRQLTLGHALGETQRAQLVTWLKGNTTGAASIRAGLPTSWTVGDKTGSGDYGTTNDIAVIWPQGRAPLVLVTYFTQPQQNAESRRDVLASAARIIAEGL

[6] = target: T2, purified class A, C and D enzymes (β-lactamases) (UniProt P0AD64, L31Q/G234S/E235K, species not given); assay: biochemical; type: biochemical; details: read-out: Ki (SHV-12, NCF); purified SHV-12; nitrocefin (NCF) as reporter substrate
T2 construct: Ki (SHV-12, NCF), uM; other: purified SHV-12; nitrocefin (NCF) as reporter substrate
T2 sequence (P0AD64 1-286 L31Q/G234S/E235K): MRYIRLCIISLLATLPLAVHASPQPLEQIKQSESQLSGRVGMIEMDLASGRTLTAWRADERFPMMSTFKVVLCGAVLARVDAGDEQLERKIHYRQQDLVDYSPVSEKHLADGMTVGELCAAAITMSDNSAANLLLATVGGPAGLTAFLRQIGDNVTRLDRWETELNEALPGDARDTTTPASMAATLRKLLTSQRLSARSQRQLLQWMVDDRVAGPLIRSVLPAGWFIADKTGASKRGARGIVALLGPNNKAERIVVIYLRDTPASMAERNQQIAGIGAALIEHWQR

[7] = target: T3, purified class A, C and D enzymes (β-lactamases) (Acinetobacter baumannii, UniProt Q9L4P2); assay: biochemical; type: biochemical; details: purified OXA-23; nitrocefin (NCF) as reporter substrate
T3 construct: rows headed: Ki (OXA-23, NCF), uM; other: purified OXA-23; nitrocefin (NCF) as reporter substrate
T3 sequence (Q9L4P2 whole entry): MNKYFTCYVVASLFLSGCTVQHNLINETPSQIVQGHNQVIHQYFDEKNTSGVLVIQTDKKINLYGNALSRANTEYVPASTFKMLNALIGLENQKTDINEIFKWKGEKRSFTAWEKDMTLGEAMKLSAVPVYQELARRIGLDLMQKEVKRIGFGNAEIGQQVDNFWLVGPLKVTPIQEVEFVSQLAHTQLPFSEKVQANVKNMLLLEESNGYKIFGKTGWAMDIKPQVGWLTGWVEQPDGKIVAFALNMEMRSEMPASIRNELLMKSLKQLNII

ECL1002 = assay: Aztreonam potentiation (MPC@4), strain ECL1002; details: minimum BLI concentration inhibiting growth with aztreonam 4 μg/mL; tested up to 40 μg/mL
AB1054 OXA-23 = assay: Meropenem potentiation (MPC@8), strain AB1054 OXA-23; type: cell-based, Acinetobacter baumannii; details: minimum BLI concentration inhibiting growth with meropenem 8 μg/mL; tested up to 20 μg/mL
ec308 SHV-5 = assay: Aztreonam potentiation (MPC@4), strain ec308 SHV-5; details: minimum BLI concentration inhibiting growth with aztreonam 4 μg/mL; tested up to 40 μg/mL
KP1010 SHV-12 = assay: Aztreonam potentiation (MPC@4), strain KP1010 SHV-12; details: minimum BLI concentration inhibiting growth with aztreonam 4 μg/mL; tested up to 40 μg/mL
KP1005 CTX-M-14 = assay: Tigemonam potentiation (MPC@4), strain KP1005 CTX-M-14; details: minimum BLI concentration inhibiting growth with tigemonam 4 μg/mL; tested up to 40 μg/mL
ec302 TEM-10 = assay: Aztreonam potentiation (MPC@4), strain ec302 TEM-10; details: minimum BLI concentration inhibiting growth with aztreonam 4 μg/mL; tested up to 40 μg/mL
AB1053 OXA-72 = assay: Meropenem potentiation (MPC@8), strain AB1053 OXA-72; type: cell-based, Acinetobacter baumannii; details: minimum BLI concentration inhibiting growth with meropenem 8 μg/mL; tested up to 20 μg/mL
KP1004 KPC-2 [8] = assay: Aztreonam potentiation (MPC@4), strain KP1004 KPC-2; details: minimum BLI concentration inhibiting growth with aztreonam 4 μg/mL; tested up to 40 μg/mL
KP1009 CTX-M-15 = assay: Aztreonam potentiation (MPC@4), strain KP1009 CTX-M-15; details: minimum BLI concentration inhibiting growth with aztreonam 4 μg/mL; tested up to 40 μg/mL
KP1004 KPC-2 [9] = assay: Biapenem potentiation (MPC@1), strain KP1004 KPC-2; type: cell-based; details: minimum BLI concentration inhibiting growth with biapenem 1 μg/mL; tested up to 40 μg/mL
Description: (§1) Biapenem was present in the test medium at 1 μg/mL. […] Table 3 summarizes the BLI potency of biapenem potentiation (MPC@1) for two strains overexpressing class A (KPC) and class D (OXA-48) carbapenemases. Biapenem MIC for each strain is also shown.

EC1010 CMY-6 = assay: Aztreonam potentiation (MPC@4), strain EC1010 CMY-6; details: minimum BLI concentration inhibiting growth with aztreonam 4 μg/mL; tested up to 40 μg/mL
KP1086 OXA-48 = assay: Biapenem potentiation (MPC@1), strain KP1086 OXA-48; type: cell-based; details: minimum BLI concentration inhibiting growth with biapenem 1 μg/mL; tested up to 40 μg/mL
Description: as §1

T1 sequence (P24735 whole entry): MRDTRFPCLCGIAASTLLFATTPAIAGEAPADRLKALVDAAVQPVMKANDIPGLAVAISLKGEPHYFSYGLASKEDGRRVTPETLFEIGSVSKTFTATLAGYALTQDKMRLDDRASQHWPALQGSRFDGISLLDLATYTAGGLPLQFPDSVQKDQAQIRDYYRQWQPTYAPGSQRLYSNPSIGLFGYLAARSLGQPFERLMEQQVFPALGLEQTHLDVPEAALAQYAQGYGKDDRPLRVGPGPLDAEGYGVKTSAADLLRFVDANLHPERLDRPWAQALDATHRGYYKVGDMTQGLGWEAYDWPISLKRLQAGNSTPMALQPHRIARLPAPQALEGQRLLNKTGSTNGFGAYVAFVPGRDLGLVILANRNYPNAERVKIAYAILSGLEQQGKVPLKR

Structure (SMILES) | Ki [1] | Ki (KPC-2, NCF), uM [2] | Ki (P99, NCF), uM [3] | Ki (OXA-48, NCF), uM [4] | Ki (CTX-M-14, NCF), uM [5] | Ki [6] | Ki [7] | AZT MPC4 ECL1002 (ECL1002) | MPM MPC8 AB1054 OXA-23 (AB1054 OXA-23) | AZT MPC4 SHV-5 ec308 (ec308 SHV-5) | AZT MPC4 SHV-12 KP1010 (KP1010 SHV-12) | TIG MPC4 CTX-M-14 KP1005 (KP1005 CTX-M-14) | AZT MPC4 TEM-10 ec302 (ec302 TEM-10) | MPM MPC8 AB1053 OXA-72 (AB1053 OXA-72) | AZT MPC4 KPC-2 KP1004 (KP1004 KPC-2 [8]) | AZT MPC4 CTX-M-15 KP1009 (KP1009 CTX-M-15) | BPM MPC1 KP1004 KPC-2 (KP1004 KPC-2 [9]) | AZT MPC4 CMY-6 EC1010 (EC1010 CMY-6) | BPM MPC1 OXA-48 KP1086 (KP1086 OXA-48)
O=C([O-])c1c(-c2ccn[nH]2)ccc2c1O[B-](O)(O)CC2.[Na+].[Na+] [Compound 15, Disodium; 4,4-dihydroxy-8-(1H-pyrazol-5-yl)-5-oxa-4-boranuidabicyclo[4.4.0]deca-1(6),7,9-triene-7-carboxylate] | < 0.1 µM | X (X = Ki ≤ 0.1 μM) | X (key: X = Ki ≤ 0.1 μM; Y = 0.1 μM < Ki ≤ 1 μM; Z = Ki > 1 μM) | X (X = Ki ≤ 0.1 μM) | X (X = Ki ≤ 0.1 μM) | < 0.1 µM | < 0.1 µM | X (X = MPC@4 ≤ 5 μg/mL) | X (X = MPC@1 ≤ 5 μg/mL) | X (X = MPC@4 ≤ 5 μg/mL) | X (X = MPC@4 ≤ 5 μg/mL) | Z (Z = MPC@4 > 20 μg/mL) | X (X = MPC@4 ≤ 5 μg/mL) | X (X = MPC@1 ≤ 5 μg/mL) | X (X = MPC@4 ≤ 5 μg/mL) | X (X = MPC@4 ≤ 5 μg/mL) | X (X = MPC@1 ≤ 5 μg/mL) | X (X = MPC@4 ≤ 5 μg/mL) | X (X = MPC@1 ≤ 5 μg/mL)
C#Cc1ccc2c(c1C(=O)[O-])O[B-](O)(O)CC2.[Na+].[Na+] [Compound 18, Disodium; 8-ethynyl-4,4-dihydroxy-5-oxa-4-boranuidabicyclo[4.4.0]deca-1(6),7,9-triene-7-carboxylate] | < 0.1 µM | X (X = Ki ≤ 0.1 μM) | X (key: X = Ki ≤ 0.1 μM; Y = 0.1 μM < Ki ≤ 1 μM; Z = Ki > 1 μM) | X (X = Ki ≤ 0.1 μM) | X (X = Ki ≤ 0.1 μM) | < 0.1 µM | < 0.1 µM | X (X = MPC@4 ≤ 5 μg/mL) | X (X = MPC@1 ≤ 5 μg/mL) | X (X = MPC@4 ≤ 5 μg/mL) | X (X = MPC@4 ≤ 5 μg/mL) | Z (Z = MPC@4 > 20 μg/mL) | X (X = MPC@4 ≤ 5 μg/mL) | X (X = MPC@1 ≤ 5 μg/mL) | X (X = MPC@4 ≤ 5 μg/mL) | X (X = MPC@4 ≤ 5 μg/mL) | X (X = MPC@1 ≤ 5 μg/mL) | X (X = MPC@4 ≤ 5 μg/mL) | X (X = MPC@1 ≤ 5 μg/mL)
NCCn1cc(COc2ccc3c(c2C(=O)O)O[B-](O)(O)CC3)nn1 [Compound 23, Disodium; 8-[[1-(2-aminoethyl)triazol-4-yl]methoxy]-4,4-dihydroxy-5-oxa-4-boranuidabicyclo[4.4.0]deca-1(6),7,9-triene-7-carboxylate] | < 0.1 µM | X (X = Ki ≤ 0.1 μM) | X (key: X = Ki ≤ 0.1 μM; Y = 0.1 μM < Ki ≤ 1 μM; Z = Ki > 1 μM) | X (X = Ki ≤ 0.1 μM) | X (X = Ki ≤ 0.1 μM) | < 0.1 µM | < 0.1 µM | X (X = MPC@4 ≤ 5 μg/mL) | X (X = MPC@1 ≤ 5 μg/mL) | Y (Y = 5 μg/mL < MPC@4 ≤ 20 μg/mL) | X (X = MPC@4 ≤ 5 μg/mL) | Z (Z = MPC@4 > 20 μg/mL) | X (X = MPC@4 ≤ 5 μg/mL) | X (X = MPC@1 ≤ 5 μg/mL) | X (X = MPC@4 ≤ 5 μg/mL) | X (X = MPC@4 ≤ 5 μg/mL) | X (X = MPC@1 ≤ 5 μg/mL) | X (X = MPC@4 ≤ 5 μg/mL) | X (X = MPC@1 ≤ 5 μg/mL)
